According to ChEMBL document CHEMBL1201862, “PubChem BioAssay data set” (2004):
The source made the active and inactive calls.

Columns and labels:
Large T antigen = Large T antigen (Simian virus 40, UniProt P03070); format: functional, Betapolyomavirus macacae;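 further: Confirmatory-stage PubChem screen for compounds that inhibit SV40 T antigen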
[1] = molecular target: DNA dC->dU-editing enzyme APOBEC-3G (Homo sapiens, UniProt Q9HC16); assay: Dose Response confirmation of small molecule APOBEC3G DNA Deaminase Inhibitors via a fluorescence-based single-stranded DNA deaminase assay. [Related pubchem assays (depositor defined):AID493012, AID493028]; format: functional
Sequence of DNA dC->dU-editing enzyme APOBEC-3G (Q9HC16 whole entry): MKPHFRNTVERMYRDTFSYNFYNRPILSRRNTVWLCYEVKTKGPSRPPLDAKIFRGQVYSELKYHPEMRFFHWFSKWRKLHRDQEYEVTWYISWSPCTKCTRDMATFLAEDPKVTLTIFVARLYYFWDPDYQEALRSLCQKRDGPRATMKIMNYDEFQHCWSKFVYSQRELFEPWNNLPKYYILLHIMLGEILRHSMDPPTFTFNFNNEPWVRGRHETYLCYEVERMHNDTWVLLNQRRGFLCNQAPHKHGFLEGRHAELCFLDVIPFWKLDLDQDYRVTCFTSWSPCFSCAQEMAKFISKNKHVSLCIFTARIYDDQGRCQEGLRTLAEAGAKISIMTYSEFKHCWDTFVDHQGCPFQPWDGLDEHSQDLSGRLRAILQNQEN

[2] = molecular target: T1, Heat shock factor protein 1 (Mus musculus, UniProt P38532); assay: enhancement of HSF1-driven luciferase signal – cell-based, NIH3T3, luminescence, dose retest, confirmation (AID 435004); format: functional;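 further: stress induced by proteasome inhibitor MG132 added 30 min after compound; luciferase reporter driven by HSF1 response element in NIH3T3 cells; actives raise luminescence as potentiators of the MG132 stress response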
T1 sequence (P38532 whole entry): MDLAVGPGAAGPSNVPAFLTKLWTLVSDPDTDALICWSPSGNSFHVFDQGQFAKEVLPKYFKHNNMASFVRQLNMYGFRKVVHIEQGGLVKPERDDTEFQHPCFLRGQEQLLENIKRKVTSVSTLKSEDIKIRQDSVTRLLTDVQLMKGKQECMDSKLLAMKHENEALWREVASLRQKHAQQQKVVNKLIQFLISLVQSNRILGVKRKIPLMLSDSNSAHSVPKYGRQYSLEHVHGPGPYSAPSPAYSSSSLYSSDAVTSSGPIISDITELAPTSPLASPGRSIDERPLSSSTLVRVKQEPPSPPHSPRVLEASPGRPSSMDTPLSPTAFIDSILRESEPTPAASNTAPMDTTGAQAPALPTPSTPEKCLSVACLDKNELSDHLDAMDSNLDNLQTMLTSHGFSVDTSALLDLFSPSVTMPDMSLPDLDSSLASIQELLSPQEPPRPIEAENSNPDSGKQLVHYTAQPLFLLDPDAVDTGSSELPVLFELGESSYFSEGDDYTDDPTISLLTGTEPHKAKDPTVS

Protein Tat = molecular target: T2, Protein Tat (Human immunodeficiency virus type 1 group M subtype B (isolate HXB2)(HIV-1), UniProt P04608); format: functional;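 further: tat binding to TAR RNA read out by fluorescence polarization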
T2 sequence (P04608 whole entry): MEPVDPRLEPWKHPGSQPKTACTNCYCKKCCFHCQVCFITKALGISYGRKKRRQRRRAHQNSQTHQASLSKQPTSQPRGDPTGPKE

[3] = viability loss in THP-1 monocytes – THP-1 cells, cytotoxicity control for Vif-APOBEC3G degradation inhibitor project, dose response (AID 1117359); format: functional; settings: THP-1
[4] = molecular target: T3, Mannose-6-phosphate isomerase (Homo sapiens, UniProt P34949); assay: MPI inhibition at elevated mannose 6-phosphate – biochemical, fluorescence intensity, high mannose 6-phosphate, primary screen (AID 1220)
T3 sequence (P34949 whole entry): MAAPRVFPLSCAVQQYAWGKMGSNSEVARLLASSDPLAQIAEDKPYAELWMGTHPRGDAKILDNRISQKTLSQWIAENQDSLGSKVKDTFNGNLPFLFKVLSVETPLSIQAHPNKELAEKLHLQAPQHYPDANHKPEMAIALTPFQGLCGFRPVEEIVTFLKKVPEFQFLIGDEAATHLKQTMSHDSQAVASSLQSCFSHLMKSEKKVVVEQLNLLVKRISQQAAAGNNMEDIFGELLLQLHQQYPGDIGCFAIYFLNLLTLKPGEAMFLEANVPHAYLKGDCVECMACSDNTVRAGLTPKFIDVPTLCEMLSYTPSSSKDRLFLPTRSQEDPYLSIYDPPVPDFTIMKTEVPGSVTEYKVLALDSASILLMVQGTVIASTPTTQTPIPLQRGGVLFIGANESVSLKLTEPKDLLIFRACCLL

[5] = molecular target: Luciferin 4-monooxygenase (Photinus pyralis, UniProt P08659); assay: Counter Screen for Luciferase-based Assay Positives. [Related pubchem assays: 620, 618, 411 ]
Sequence of Luciferin 4-monooxygenase (P08659 whole entry): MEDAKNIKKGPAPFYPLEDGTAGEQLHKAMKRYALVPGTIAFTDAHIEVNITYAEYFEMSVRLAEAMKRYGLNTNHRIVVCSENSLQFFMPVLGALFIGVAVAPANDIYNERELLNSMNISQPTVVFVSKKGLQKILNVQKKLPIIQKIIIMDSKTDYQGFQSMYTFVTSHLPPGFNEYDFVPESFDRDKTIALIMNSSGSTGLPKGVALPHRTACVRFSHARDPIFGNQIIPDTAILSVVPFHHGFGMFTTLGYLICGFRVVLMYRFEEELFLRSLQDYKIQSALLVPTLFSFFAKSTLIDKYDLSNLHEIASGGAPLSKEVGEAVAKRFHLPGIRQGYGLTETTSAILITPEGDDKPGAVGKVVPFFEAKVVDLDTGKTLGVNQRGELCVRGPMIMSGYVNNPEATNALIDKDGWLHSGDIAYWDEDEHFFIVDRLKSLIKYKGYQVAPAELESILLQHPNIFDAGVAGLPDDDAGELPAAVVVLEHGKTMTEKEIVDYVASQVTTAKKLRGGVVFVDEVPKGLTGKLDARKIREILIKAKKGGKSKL

HT-1080 = assay: HT1080 cell viability loss – fluorescence readout (AID 620); format: functional, cell-based; settings: Homo sapiens
cells = format: functional
[6] = molecular target: T4, Replicative DNA helicase DnaB (Mycobacterium tuberculosis, UniProt P9WMR3); assay: DnaB intein splicing inhibitors, dose response, biochemical, cell-free fluorescence (AID 449749); format: functional
T4 sequence (P9WMR3 whole entry): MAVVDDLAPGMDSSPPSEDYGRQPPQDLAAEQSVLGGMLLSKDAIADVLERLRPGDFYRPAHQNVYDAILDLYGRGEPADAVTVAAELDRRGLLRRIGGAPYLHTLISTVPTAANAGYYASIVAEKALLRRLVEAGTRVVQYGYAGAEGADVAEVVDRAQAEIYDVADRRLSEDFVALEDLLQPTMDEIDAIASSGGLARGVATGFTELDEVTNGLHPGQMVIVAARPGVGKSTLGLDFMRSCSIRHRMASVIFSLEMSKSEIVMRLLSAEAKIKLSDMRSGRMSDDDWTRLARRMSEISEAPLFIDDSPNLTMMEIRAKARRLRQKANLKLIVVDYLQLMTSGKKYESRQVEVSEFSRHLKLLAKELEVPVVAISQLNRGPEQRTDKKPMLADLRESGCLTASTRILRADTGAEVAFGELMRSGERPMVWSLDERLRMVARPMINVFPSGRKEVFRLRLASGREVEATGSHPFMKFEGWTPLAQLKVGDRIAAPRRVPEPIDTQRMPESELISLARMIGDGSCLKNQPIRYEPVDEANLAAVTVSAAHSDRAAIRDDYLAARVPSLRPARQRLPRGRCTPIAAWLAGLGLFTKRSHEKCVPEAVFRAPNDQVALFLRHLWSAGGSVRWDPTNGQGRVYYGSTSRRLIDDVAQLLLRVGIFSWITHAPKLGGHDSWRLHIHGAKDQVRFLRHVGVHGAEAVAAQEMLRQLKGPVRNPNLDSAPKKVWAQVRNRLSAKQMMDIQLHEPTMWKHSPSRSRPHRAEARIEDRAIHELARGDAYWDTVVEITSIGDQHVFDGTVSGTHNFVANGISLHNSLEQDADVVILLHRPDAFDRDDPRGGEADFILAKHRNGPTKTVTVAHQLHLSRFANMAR

Protein RecA = molecular target: T5, Protein RecA (Mycobacterium tuberculosis, UniProt P9WHJ3); assay: Fluorescence Cell-Free Homogeneous Dose Retest to Identify Inhibitors of RecA-Intein Splicing Activity. [Related pubchem assays (depositor defined):AID2097, AID2223, AID489010, AID492950]; format: functional
T5 sequence (P9WHJ3 whole entry): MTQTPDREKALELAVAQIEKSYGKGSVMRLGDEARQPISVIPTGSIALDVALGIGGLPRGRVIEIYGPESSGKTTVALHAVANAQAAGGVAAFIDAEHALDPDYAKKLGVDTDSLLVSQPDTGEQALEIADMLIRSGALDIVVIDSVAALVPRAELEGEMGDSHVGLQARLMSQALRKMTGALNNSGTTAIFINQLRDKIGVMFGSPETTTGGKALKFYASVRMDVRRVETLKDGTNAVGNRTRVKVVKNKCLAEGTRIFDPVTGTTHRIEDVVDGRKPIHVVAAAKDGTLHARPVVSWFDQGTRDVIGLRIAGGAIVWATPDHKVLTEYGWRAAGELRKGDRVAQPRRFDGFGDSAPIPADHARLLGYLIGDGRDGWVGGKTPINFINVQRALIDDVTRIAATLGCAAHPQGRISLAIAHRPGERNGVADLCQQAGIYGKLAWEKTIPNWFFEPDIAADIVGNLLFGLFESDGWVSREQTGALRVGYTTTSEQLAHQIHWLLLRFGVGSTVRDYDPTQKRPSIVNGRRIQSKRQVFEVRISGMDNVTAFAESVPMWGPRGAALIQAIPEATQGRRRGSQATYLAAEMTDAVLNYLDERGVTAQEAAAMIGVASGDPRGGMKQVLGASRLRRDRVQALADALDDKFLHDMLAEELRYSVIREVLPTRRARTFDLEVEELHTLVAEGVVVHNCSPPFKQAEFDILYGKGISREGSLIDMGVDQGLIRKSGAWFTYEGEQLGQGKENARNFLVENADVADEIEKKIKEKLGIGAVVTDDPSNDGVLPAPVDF

[7] = molecular target: T6, Sentrin-specific protease 8 (Homo sapiens, UniProt Q96LD8); format: functional
T6 sequence (Q96LD8 whole entry): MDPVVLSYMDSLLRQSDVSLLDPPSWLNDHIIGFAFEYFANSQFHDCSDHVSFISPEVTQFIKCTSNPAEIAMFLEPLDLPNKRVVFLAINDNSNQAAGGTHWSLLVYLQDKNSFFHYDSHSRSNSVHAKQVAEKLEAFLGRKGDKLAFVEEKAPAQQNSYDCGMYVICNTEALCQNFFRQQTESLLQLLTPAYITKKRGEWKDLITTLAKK

[8] = molecular target: T6, Sentrin-specific protease 8; format: functional; remark: listed apart in the source
[9] = THP-1 cell cytotoxicity, dose response, cytotoxicity control for non-replicating M. tuberculosis project (AID 489025); format: functional
[10] = molecular target: T7, Short transient receptor potential channel 4 (Mus musculus, UniProt Q9QUQ5); assay: block of DAMGO-driven TRPC4 calcium entry – cell-based, HEK293 TRPC4/mu-opioid, Fluo-4 calcium, dose response (AID 434942); format: functional;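 further: potency of inhibitors blocking the TRPC4 calcium response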
T7 sequence (Q9QUQ5 whole entry): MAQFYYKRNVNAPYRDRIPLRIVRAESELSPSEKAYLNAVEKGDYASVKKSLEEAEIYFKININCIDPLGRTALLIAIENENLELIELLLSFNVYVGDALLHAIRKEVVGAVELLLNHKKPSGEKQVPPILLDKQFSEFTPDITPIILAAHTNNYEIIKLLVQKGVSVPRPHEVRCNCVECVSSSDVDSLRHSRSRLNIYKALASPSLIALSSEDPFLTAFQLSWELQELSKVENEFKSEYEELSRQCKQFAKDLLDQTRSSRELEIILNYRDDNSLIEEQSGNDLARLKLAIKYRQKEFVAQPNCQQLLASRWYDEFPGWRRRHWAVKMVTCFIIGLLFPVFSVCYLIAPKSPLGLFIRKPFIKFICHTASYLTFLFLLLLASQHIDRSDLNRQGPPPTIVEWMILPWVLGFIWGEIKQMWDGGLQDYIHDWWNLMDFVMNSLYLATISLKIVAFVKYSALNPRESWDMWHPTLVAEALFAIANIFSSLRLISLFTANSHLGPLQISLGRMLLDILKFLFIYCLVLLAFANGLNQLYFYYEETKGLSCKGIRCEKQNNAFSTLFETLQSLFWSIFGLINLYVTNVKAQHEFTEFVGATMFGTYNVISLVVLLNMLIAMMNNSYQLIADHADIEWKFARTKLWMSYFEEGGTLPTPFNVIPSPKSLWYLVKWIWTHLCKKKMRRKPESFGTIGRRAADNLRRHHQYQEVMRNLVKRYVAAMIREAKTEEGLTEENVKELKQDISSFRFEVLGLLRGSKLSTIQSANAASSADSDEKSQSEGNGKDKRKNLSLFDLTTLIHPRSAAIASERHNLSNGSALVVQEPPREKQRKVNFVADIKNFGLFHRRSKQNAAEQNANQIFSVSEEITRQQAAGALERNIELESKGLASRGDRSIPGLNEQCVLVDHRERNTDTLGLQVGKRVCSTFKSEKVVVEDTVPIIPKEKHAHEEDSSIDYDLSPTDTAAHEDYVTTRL

Protein skinhead-1 = molecular target: T8, Protein skinhead-1 (Caenorhabditis elegans, UniProt P34707); format: functional
T8 sequence (P34707 whole entry): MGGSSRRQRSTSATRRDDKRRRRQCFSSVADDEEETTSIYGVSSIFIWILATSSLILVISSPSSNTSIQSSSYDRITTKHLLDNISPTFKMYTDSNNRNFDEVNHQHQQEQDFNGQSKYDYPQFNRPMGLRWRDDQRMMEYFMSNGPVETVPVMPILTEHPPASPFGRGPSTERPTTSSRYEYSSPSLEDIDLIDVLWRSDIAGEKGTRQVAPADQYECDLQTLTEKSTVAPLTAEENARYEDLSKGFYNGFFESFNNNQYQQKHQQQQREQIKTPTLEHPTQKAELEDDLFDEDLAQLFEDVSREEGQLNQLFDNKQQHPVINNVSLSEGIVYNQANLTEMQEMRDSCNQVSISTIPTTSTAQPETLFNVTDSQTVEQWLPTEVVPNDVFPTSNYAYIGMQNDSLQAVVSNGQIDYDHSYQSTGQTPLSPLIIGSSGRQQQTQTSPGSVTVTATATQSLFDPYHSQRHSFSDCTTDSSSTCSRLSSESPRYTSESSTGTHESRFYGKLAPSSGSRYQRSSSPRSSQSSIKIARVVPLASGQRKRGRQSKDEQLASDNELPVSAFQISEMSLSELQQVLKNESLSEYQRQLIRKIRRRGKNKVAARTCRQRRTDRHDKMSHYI

[11] = NIH-3T3 fibroblast cytotoxicity, dose response, cytotoxicity control, cell-based, fluorescence, Alamar Blue, secondary assay (AID 2327); format: functional;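 further: NIH-3T3 mouse fibroblasts cultured with fluconazole at 8 µg/mL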

Sequence of Large T antigen (P03070 whole entry): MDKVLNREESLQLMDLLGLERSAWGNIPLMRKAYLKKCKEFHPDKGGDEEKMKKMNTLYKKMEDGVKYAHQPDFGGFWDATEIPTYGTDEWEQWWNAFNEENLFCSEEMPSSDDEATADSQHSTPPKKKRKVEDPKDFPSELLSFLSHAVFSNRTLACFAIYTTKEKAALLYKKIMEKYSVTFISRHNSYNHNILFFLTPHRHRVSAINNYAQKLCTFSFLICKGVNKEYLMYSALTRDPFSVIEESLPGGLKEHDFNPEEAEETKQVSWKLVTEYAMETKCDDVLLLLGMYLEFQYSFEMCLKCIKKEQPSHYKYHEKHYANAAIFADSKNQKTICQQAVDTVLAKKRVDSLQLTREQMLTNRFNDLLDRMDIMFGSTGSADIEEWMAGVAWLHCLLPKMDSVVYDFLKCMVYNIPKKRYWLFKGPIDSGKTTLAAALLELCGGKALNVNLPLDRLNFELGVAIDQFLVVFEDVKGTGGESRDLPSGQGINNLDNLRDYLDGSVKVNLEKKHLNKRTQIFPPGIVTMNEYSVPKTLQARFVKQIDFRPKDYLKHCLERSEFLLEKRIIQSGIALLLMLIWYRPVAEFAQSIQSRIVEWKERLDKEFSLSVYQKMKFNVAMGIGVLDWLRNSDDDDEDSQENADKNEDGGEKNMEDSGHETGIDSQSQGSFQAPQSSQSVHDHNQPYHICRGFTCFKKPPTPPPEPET

CSS(=O)(=O)c1cccc2cccnc12
IC50 (Large T antigen): 65.2 µM (active)
IC50 [1]: 9.66 µM (active)
EC50 [2]: 19.1 µM (active)

CNC(=O)[C@@H]1C[C@H]1[C@@H](NC(=O)OCc1ccccc1)c1ccccc1
IC50 (Protein Tat): > 100 µM (active)
CC50 [3]: > 40 µM (active)

CCOC(=O)N1CCN(c2cc(NCCO)c([N+](=O)[O-])c3nonc23)CC1
IC50 [4]: > 50 µM (not active)

COc1ccc(C2=Nc3ccccc3OC2)cc1
EC50 [5]: < 0.2 µM (active)
EC50 (HT-1080): > 50 µM (not active)
IC50 (cells): 3.76 µM (active)

O=C1CC(c2ccccc2)=NN1c1ccc([N+](=O)[O-])cc1
AC50 [6]: 5.46 µM (active)
EC50 (Protein RecA): 4.05 µM (active)
IC50 [7]: 33.2 µM (active)
IC50 [8]: 52.3 µM (active)

COc1cccc(C(=O)NCCC2=CCCCC2)c1
EC50 [5]: < 0.2 µM (active)
EC50 (HT-1080): > 50 µM (not active)

COc1cc(CNC2CCCC2)cc(Cl)c1OCc1ccc(F)cc1
CC50 [9]: 19.8 µM (active)
EC50 [10]: 6.68 µM (active)
IC50 (Protein skinhead-1): 3.33 µM (active)

C=CCN(CC=C)S(=O)(=O)c1ccc(C(=O)Nc2nnc(COC)o2)cc1
EC50 [11]: 63.3 µM (active)
CC50 [3]: 15.4 µM (active)

O=C(CNc1ccc2ccccc2c1)N/N=C/c1ccc(C(=O)O)cc1
IC50 [4]: > 50 µM (not active)
